Here are results for eight compounds from patent publication US20230346765A1, “METHODS OF TREATING XANTHINE OXIDASE-RELATED DISEASES WITH NIFLUMIC ACID AND DERIVATIVES THEREOF” (Baylor College of Medicine, priority 2020, published 2023).

“Also recorded” adds a separate entry of the source.

Data set [1] concerns allantoxanamide-treated mice. Put plainly: Serum uric acid in acute hyperuricemia mouse model, allantoxanamide-treated (Example 4). It is filed as in vivo, C57BL/6 mice. The settings on record: 50 mg/kg oral gavage once. Here is the method:
Adult C57BL/6 mice (15-25 g, 6-8 weeks old) were injected intraperitoneally (i.p.) with allantoxanamide at 100 mg/kg in 0.5% sodium carboxymethyl cellulose (CMC-Na) in a volume of 0.1 ml/10 g mouse body weight, to increase the serum uric acid level. Then the mice received a test compound at a concentration of 50 mg/kg in 1.0% polyethylene glycol 400 (PEG-400 in a volume of 0.1 ml/10 g mouse body weight), via oral gavage. Positive control mice received allopurinol at the same concentration as the test compound after i.p. injection of allantoxanamide. The negative control mice received PEG400 only after i.p. injection of allantoxanamide. Blood samples were collected through facial vein at 3 hours and 23 hours after the oral gavage (one time treatment). The blood was allowed to clot for 1 hour at room temperature and then centrifuged at 2350×g for 4 minutes to obtain serum. The serum was kept on ice and assayed immediately. Serum uric acid was determined using the phosphotungstate method, as known to those of skill in the art.
Allopurinol was used as a positive control. Allantoxanamide is a potent uricase inhibitor. […] Animal numbers used in this experiments [Negative control (baseline)=11; allantoxanamide=10, allopurinol (positive control)=4; niflumic acid=6; NFA-impurity E=6; talniflumate=6 and ethylniflutnate=6].

Data set [2] deals with uricase −/− mice. The data set is described as follows: Serum uric acid in chronic hyperuricemia model, drug in drinking water. It is filed as in vivo. Here is the method:
Serum uric acid (SUA) levels in uricase −/− mice were used to probe the effects of treatment with drinking water containing allopurinol, DHNB, and niflumic acid (NFA). Under the maintenance of allopurinol, adult uricase−/− mice show relatively low SUA (2-4 mg/dL). […] For the current experiments, the allopurinol water was stopped and normal water was supplied to uricase−/− mice for one week; and then uricase−/− mice were treated with DHNB (150 mg/L) or NFA (150 mg/L) in drinking water. Additionally, uricase−/− mice were given allopurinol (150 mg/L) as a positive control, while normal water was given for a negative control. All drug/waters were refreshed every week. Serum uric acid (SUA) levels of treated and control mice were determined 1-2 weeks, 4-6 weeks or 8-10 weeks after the treatment (see FIG. 10). Mouse blood (100˜200 μL) was taken via facial vein at the scheduled time point. The blood was allowed to clot for 1 hour at room temperature and then centrifuged at 2350 g for 4 minutes to obtain serum. The serum was kept on ice and assayed immediately by the tungsten phosphate method, as known to those of skill in the art.

For data set [3], the target named is T1, Xanthine oxidase from bovine milk (Bos taurus, UniProt P80457).
T1 construct: Xanthine oxidase from bovine milk; purchased Sigma Chemical Co. (St. Louis, MO); host or cells: bovine milk
Put plainly: XO inhibition assay, cell-free, spectrophotometric monitoring of uric acid formation at 295 nm. The data set is classed as biochemical. The conditions noted are these: for type of inhibition / Ki: Lineweaver-Burk plot; for Ki: read-out: inhibitor constant (Ki); for inhibition of XO compared among 25 compounds and with allopurinol: each compound at 20 μM; for Vmax of XO: in the presence of different concentrations of the inhibitor; for initial rate of uric acid formation with longer pre-incubation times with XO: pre-incubated with XO for varying times, then xanthine added. The text has this: Xanthine oxidase from bovine milk, xanthine, allopurinol, niflumic acid (NFA), ethyl niflumate, 2-(3-chloro-5-(trifluoromethyl)-2-pyridylthio)pyridine-3-carboxylic acid, 2-[3-(trifluoromethyl)phenoxy]nicotinic acid, clonixin, flunixin, flufenamic acid, indomethacin, naproxen, diclofenac, aspirin, ibuprofen, talniflumate, 6-phenylamino-nicotinic acid, 2-phenylamino-nicotinic acid, N-phenylanthranilic acid, mefenamic acid, tolfenamic acid, meclofenamic acid, floctafenic acid, and dimethyl sulfoxide (DMSO) were obtained from Sigma Chemical Co. (St. Louis, MO). Morniflumate was purchased from Toronto Research Chemicals, Inc. (North York, Canada).
The uric acid absorbance at 295 nm was followed and the intensity data were collected every 30 seconds for 10 minutes. The initial rate of uric acid formation was generated for the reaction and converted to XO activity as 100% without any inhibitor (negative control). The inhibitory effect of NFA on XO activity was calculated as compared with the negative control (DMSO).
The formation of uric acid during the oxidation of xanthine by XO in the absence of NFA was recorded (see FIG. 2A). Uric acid formation was monitored as the absorbance at 295 nm over a period of 0-10 minutes during the oxidation of xanthine. The corresponding data were recorded for the oxidation of xanthine by XO in the presence of 10 μM NFA over a period of 0-10 minutes (see FIG. 2B).
Enzyme kinetics analysis of NFA—The inhibition kinetics of NFA on XO was determined by using the Lineweaver-Burk plot (see FIG. 3A). […] The maximum velocity (Vmax) and Michaelis-Menten constant of XO were determined in the presence of different concentrations of NFA (see FIG. 3B).
Dose-dependent effects—The dose-dependent effects on XO inhibition by NFA, NFA impurity E (labeled as “Impurity E”), flunixin, clonixin, and flufenamic acid were studied (see FIG. 5). Varying concentrations (0-40 μM) of each compound were pre-incubated with 20 nM of XO. Allopurinol was used as a positive control and DMSO was used as a negative control.
The inhibition kinetics of NFA impurity E on XO was determined by using the Lineweaver-Burk plot (see FIG. 7A). […] The maximum velocity (Vmax) and Michaelis-Menten constant of XO was determined in the presence of different concentrations of NFA […] (see FIG. 7B).
XO (20 nM) was pre-incubated with NFA, allopurinol or a combination of NFA and allopurinol for 1 minute in a phosphate buffer ([…] pH 7.2), followed by the addition of […] xanthine to start the reaction. XO activity was analyzed by measuring the production of uric acid.

Data set [4] relates to uricase −/− mice. The data set is described as follows: Serum uric acid in chronic hyperuricemia model, drug in solid chow diet. The data set is classed as in vivo. The settings on record: for SUA: 250 mg/Kg food, 6-8 weeks; for SUA levels versus regular chow control: 250 mg/kg food, 6 to 8 weeks, p<0.001. Here is the method: An analogous study was performed to investigate the effects on SUA in uricase −/− mice treated with solid chow diet formulated with NFA, DHNB, and allopurinol. NFA, DHNB or allopurinol was formulated into solid chow diet (250 mg/kg food, LabDiet® 5V5R, ½″ pellet; Irradiated) from the company (Test Diet, St. Louis, MO and Lab Supply, Inc). Allopurinol water was stopped for uricase−/− mice, while normal water was supplied during experiments. Uricase−/− mice (1-2 months age, male and female), were given special solid chow die including NFA, DHNB or allopurinol (250 mg/kg food). In separate mice, special solid chow diet containing allopurinol (250 mg/kg food) was given for a positive control and regular solid chow diet was given for a negative control. Blood samples were obtained and processed at 6 or 8 weeks after the treatment (see FIG. 11). Serum uric acid was determined using the tungsten phosphate method.

Data set [5] is described as follows: Stability of NFA during pre-incubation with XO (absorbance at 287 nm). The conditions noted are these: incubated with XO for 0 to 47 hours. It is filed as physicochemical.
In data set [6] the test system is allantoxanamide-treated mice. Put plainly: Hypouricemic effect in allantoxanamide induced hyperuricemic mice (Example 3). The data set is classed as in vivo, C57BL/6 mice. The conditions noted are these: 50 mg/kg oral gavage once; 1.5, 3 and 23 hours; p<0.05. The protocol: A hyperuricemia mouse model was used. Allantoxanamide, a potent uricase inhibitor, was used to induce hyperuricemia in mice in this study. Briefly, adult C57BL/6 mice (15-25 g. 6-8 weeks old) were injected intraperitoneally (i.p.) with allantoxanamide at 100 mg/kg or 200 mg/kg in 0.5% sodium carboxymethyl cellulose (CMC-Na) in a volume of 0.1 ml/10 g mouse body weight, to increase the serum uric acid level. The mice then received the test compound morniflumate at a concentration of 50 mg/kg in 1.0% polyethylene glycol 400 (PEG400 in a volume of 0.1 ml/10 g mouse body weight), via oral gavage. Positive control mice received allopurinol at the same concentration as test compound after i.p. injection of allantoxanamide. The negative control mice received PEG400 only after i.p, injection of allantoxanamide. Blood samples were collected through the facial vein at 1,5 hours, 3 hours, and 23 hours after the oral gavage. The blood was allowed to clot for 1 hour at room temperature and then centrifuged at 2350×g for 4 minutes to obtain serum. The serum was kept on ice and assayed immediately. Serum uric acid was determined using the phosphotungstate method, as known to those of skill in the art.

The mark [7] stands for this setting: 150 mg/L in drinking water, 1-2 weeks.
Where [8] appears, read: 150 mg/L in drinking water, 4-6 weeks.
Setting [9] is: 150 mg/L in drinking water, 8-10 weeks.

T1 sequence (P80457 whole entry): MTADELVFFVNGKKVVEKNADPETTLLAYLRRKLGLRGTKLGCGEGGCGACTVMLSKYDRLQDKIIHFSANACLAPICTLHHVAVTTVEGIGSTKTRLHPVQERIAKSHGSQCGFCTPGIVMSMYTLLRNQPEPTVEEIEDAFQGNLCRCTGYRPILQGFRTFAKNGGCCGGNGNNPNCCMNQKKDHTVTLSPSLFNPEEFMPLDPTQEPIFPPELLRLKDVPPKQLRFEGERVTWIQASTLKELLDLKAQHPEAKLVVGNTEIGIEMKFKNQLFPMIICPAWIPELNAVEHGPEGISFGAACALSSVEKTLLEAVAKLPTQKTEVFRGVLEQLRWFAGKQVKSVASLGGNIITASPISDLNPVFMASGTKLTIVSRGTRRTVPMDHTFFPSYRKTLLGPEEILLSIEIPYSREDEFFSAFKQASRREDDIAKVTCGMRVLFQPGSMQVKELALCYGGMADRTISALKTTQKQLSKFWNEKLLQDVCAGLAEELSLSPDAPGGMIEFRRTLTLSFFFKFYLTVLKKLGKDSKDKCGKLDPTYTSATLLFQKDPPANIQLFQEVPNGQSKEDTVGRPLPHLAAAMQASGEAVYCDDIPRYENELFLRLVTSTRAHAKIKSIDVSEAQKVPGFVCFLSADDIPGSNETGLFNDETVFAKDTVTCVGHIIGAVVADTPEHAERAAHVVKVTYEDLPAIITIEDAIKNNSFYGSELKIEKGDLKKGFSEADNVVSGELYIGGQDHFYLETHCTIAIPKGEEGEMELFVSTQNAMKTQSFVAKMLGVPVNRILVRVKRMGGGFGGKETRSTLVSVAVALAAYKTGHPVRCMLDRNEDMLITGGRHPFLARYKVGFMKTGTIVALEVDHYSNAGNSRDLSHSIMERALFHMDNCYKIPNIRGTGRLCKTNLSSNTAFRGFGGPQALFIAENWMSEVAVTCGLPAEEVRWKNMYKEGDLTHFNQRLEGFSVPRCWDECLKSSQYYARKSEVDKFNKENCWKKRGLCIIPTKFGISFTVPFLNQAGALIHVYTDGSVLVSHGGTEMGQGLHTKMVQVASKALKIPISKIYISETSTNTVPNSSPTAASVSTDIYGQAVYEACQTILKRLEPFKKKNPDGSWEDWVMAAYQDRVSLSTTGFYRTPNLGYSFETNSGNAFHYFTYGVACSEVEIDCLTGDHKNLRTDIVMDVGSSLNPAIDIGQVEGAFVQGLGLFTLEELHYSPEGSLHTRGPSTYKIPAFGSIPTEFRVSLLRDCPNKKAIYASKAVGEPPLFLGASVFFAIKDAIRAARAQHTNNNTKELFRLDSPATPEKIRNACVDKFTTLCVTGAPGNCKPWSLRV

As to `CCOC(=O)c1cccnc1Nc1cccc(C(F)(F)F)c1` [ethylniflumate, ethyl niflumate], the “SUA levels versus allantoxanamide control” value in data set [1] (3-hour time point) is listed as “significantly reduced SUA levels”.

With `O=C1OC(OC(=O)c2cccnc2Nc2cccc(C(F)(F)F)c2)c2ccccc21` (centres unmarked) [talniflumate], the “SUA levels versus allantoxanamide control” value in data set [1] (3-hour time point) is reported as “significantly reduced SUA levels”; in data set [1] (23-hour time point), “significant effect”.

`O=C(O)c1cccnc1Nc1cccc(C(F)(F)F)c1` [Niflumic acid, niflumic acid] returned an SUA with uricase −/− mice [2] (setting [7]) of 5.47 ± 1.21 mg/dL. Besides, the SUA with uricase −/− mice [2] (setting [8]) is 6.50 ± 0.64 mg/dL. In the data set with uricase −/− mice [2] (setting [9]), this compound gave an SUA of 3.89 ± 0.20 mg/dL. Further, the “SUA levels versus control mice” value in the data set with uricase −/− mice [2] (150 mg/L in drinking water, all three time points, p<0.001) is on record as “significantly reduced SUA levels”. For the same compound, in data set [3] (20 nM XO, read-out: IC50, inhibitory effect on XO activity), the IC50 – broadly, the midpoint of a concentration-inhibition curve – was found to be 2.75 µM. In data set [3], the type of inhibition result is “mixed-type inhibition”; the Ki (commonly a measure of affinity in units of concentration, obtained from inhibition or displacement) was determined as 0.368 µM; the “Vmax of XO” value came to 0.04 µM/s; the “initial rate of uric acid formation with longer pre-incubation times with XO” value was “did not change”. The relative enzymatic activity entry in data set [3] (at 20 μM) is given as “approximately 20%”. In addition, in data set [3] (at lower concentrations (≤3.3 μM)), the XO relative activity turned out to be 45%. In addition, in data set [3] (listed as NFA), the “inhibition of XO compared among 25 compounds and with allopurinol” value is listed as “inhibitory effect similar to that of allopurinol; also recorded: most effectively inhibit XO activity”. Moreover, in the data set on uricase −/− mice [4], the SUA came to 5.17 ± 1.28 mg/dL and the “SUA levels versus regular chow control” value is listed as “significantly reduced SUA levels”. In addition, in data set [5], the “effect of pre-incubation with XO on stability” value was “no effect on the stability”. The “SUA levels versus allantoxanamide control” value in data set [1] (3-hour time point) is “significantly reduced SUA levels”. In addition, the “SUA levels versus allantoxanamide control” value in data set [1] (23-hour time point) is on record as “significant effect”.

In the case of `O=C(OCCN1CCOCC1)c1cccnc1Nc1cccc(C(F)(F)F)c1` [morniflumate, Morniflumate], in data set [6], the “SUA levels versus allantoxanamide control” value is recorded as “significantly reduced SUA levels”.

Consider `O=C(O)c1ccc(Nc2cccc(C(F)(F)F)c2)nc1` [NFA impurity E], for which the “dose-dependent XO inhibition, rank” value in data set [3] (0-40 μM pre-incubated with 20 nM XO) is listed as “most potent amongst each of the compounds tested”. Moreover, in data set [3], the type of inhibition entry is listed as “mixed-type inhibition”; the Ki came out at 0.03 µM; the “inhibition of XO compared among 25 compounds and with allopurinol” value is given as “most potent inhibitor amongst the compounds tested; also recorded: most effectively inhibit XO activity”; the “Vmax of XO” value amounted to 0.044 µM/s. In data set [3], the “initial rate of uric acid formation with longer pre-incubation times with XO” value is recorded as “did not change”. The “SUA levels versus allantoxanamide control” value in data set [1] (3-hour time point) is “significantly reduced SUA levels”. Further, the “SUA levels versus allantoxanamide control” value in data set [1] (23-hour time point) is given as “significant effect”.

Regarding `Cc1c(Nc2ncccc2C(=O)O)cccc1C(F)(F)F` [flunixin], the “inhibition of XO compared among 25 compounds and with allopurinol” value in data set [3] is “decreased its XO inhibitory activity”.

Take `O=Cc1cc(O)c(O)c([N+](=O)[O-])c1` [DHNB, 3,4-dihydroxy-5-nitrobenzaldehyde]: the SUA in the data set on uricase −/− mice [2] (setting [7]) was found to be 5.37 ± 1.06 mg/dL; in the data set on uricase −/− mice [2] (setting [8]), 5.73 ± 0.76 mg/dL; with uricase −/− mice [2] (setting [9]), 5.76 ± 0.81 mg/dL; in the data set with uricase −/− mice [4], 5.91 ± 1.30 mg/dL. Also, in the data set with uricase −/− mice [4], the “SUA levels versus regular chow control” value is “significantly reduced SUA levels”.

As to `Oc1ncnc2[nH]ncc12` [Allopurinol, allopurinol], the SUA in the data set on uricase −/− mice [2] (setting [7]) was found to be 3.34 ± 0.87 mg/dL; in the data set on uricase −/− mice [2] (setting [8]), 3.45 ± 0.49 mg/dL; in the data set with uricase −/− mice [2] (setting [9]), 4.28 ± 0.80 mg/dL; with uricase −/− mice [4], 4.33 ± 1.15 mg/dL. Moreover, the “SUA under maintenance of allopurinol” value in the data set with uricase −/− mice [2] (adult uricase−/− mice, maintenance allopurinol water) lay within 2 to 4 mg/dL. Further, the “SUA levels versus regular chow control” value in the data set with uricase −/− mice [4] is “significantly reduced SUA levels”. The “SUA levels versus allantoxanamide control” value in data set [1] (3-hour time point), in data set [1] (23-hour time point) and in data set [6] was “significantly reduced SUA levels” throughout.
